The test system of series [1] is patients 65 years of age and older with major depression. As to the kind of experiment: Clinical Global Impression Scale (CGI) in 8-week double-blind comparison. Particulars: day 14; for CGI scores, ε4 carriers compared with those without an ε4 allele: interaction p=0.029. In kind it is in vivo, human. An excerpt: Clinical Global Impression Scale (CGI) (Guy, W., ECDEU Assessment Manual for Psychopharmacology, DHEW Publication No. (ADM) 76-338, rev. 1976). The CGI scale is a global 7-point rating of the severity of the illness taking into account the preceding week (CGI-Severity) and a global 7-point rating of the clinical status of the subject since baseline (CGI-Change). A responder is defined as being “Much Improved” or “Very Much Improved”—having a CGI score of at least 2 according to CGI-Change. Thus, a higher CGI-Severity score corresponds to more severe depression whereas a higher CGI-Change score corresponds to lessened depression, or an improvement in alleviating the symptoms of depression.
(§1) J. Psychiatr. 154:603-608, 1997.
(§2) All statistical analyses were performed using the SAS software package (available from SAS Institute). For clinical measures of depression (HDRS-21, HDRS-17, GDS, and CGI), analyses of covariance were performed with baseline values as the covariate, and apoE genotype (ε4 allele carrier vs. non-carder) and medication (mirtazapine, paroxetine) as the predictors. For remitter and responder analyses of clinical measures of depression, Cochran-Mantel-Haenszel statistics were used. For comparison of medication and genotype groups on baseline demographic measures, two-way analyses of variance were used.

Series [2] has the same test system. In words: Hamilton Depression Rating Scale (HDRS-17, HDRS-21) in 8-week double-blind comparison of paroxetine and mirtazapine. In kind it is in vivo, human. The note with it: for HDRS-21 scores, ε4 carriers compared with those without an ε4 allele: interaction p=0.033; for HDRS-17 scores, ε4 carriers compared with those without an ε4 allele: interaction p=0.036; for HDRS-21 50% responders: patients carrying an ε4 allele; for rate and onset of antidepressant response, mirtazapine compared with paroxetine: early weeks of treatment, summary of the example.
Text: Hamilton Depression Rating Scale (HDRS; 17 and 21 item versions of a structured interview) (Hamilton, M., J. Neurol. Neurosurg. Psychiatr. 23:56-62, 1960; Hamilton, M., Br. J. Soc. Clin. Psychol. 6:278-296,1967). […] In other words, a lower rating in the HDRS scale signifies less depression. In contrast, HDRS remitters, which are those patients showing the least depression, are defined as subjects who have an HDRS-17 score of less than 7 at a post-baseline visit.
as §1, §2

Series [3] has the same test system. In words: Mini Mental State Examination (MMSE), cognition, in 8-week double-blind comparison. The class given is in vivo, human. Particulars: for mean MMSE score, ε4 carriers compared with noncarriers: week 8, full cohort, analysis of covariance. As to the method:
(§3) A multi-center, randomized, double-blind, 8-week comparison of paroxetine and mirtazapine was performed for 246 nondemented, cognitively intact patients 65 years of age and older with major depression. All patients were genotyped at the apoE locus as discussed further below.
(§4) After an initial evaluation period, the mirtazapine patients started with a 15 mg dose per day. After two weeks of treatment (Day 14), patients' dosages were raised to 30 mg per day. […] Subjects who rate “Much Improved” or “Very Much Improved” on the CGI Scale I continued on the same dose they were receiving during the previous week.
(§5) For paroxetine, the dosing system was the same, except that the starting dosage was 20 mg per day, raised to 30 mg per day, and to a maximum of 40 mg per day.
This test represents a brief standardized method to grade cognitive mental status. The test assesses orientation, attention, immediate and short-term recall, language, and the ability to follow verbal and written commands. The lower the score, the lower the cognitive mental status.
To screen patients for the gene, genomic DNA was extracted from EDTA-treated whole blood using the Puregene DNA extraction kit (available from Gentra Systems). […] J. Psychiatr. 154:603-608, 1997. Genotypes were determined by two observers blind as to the clinical or neuropathological diagnosis.
All statistical analyses were performed using the SAS software package (available from SAS Institute). […] For remitter and responder analyses of clinical measures of depression, Cochran-Mantel-Haenszel statistics were used. For comparison of medication and genotype groups on baseline demographic measures, two-way analyses of variance were used.

Series [4] has the same test system. As to the kind of experiment: Geriatric Depression Scale (GDS) in 8-week double-blind comparison. The class given is in vivo, human. Particulars: for GDS scores, ε4 carriers compared with noncarriers / 50% reduction in GDS score, ε4 carriers compared with those without an ε4 allele / GDS scores, patients with an ε4 allele compared with those without: day 14; for GDS scores, ε4 carriers compared with noncarriers: Caucasian patients; for 50% reduction in GDS score, ε4 carriers compared with those without an ε4 allele / GDS scores, patients with an ε4 allele compared with those without / 50% reduction in GDS score, ε4 carriers compared with noncarriers: full cohort; for number of patients showing a 50% reduction in GDS, ε4 carriers compared with noncarriers / 50% reduction in GDS score, ε4 carriers compared with noncarriers: day 28; for number of patients showing a 50% reduction in GDS, ε4 carriers compared with noncarriers: Caucasian subjects. As to the method:
Geriatric Depression Scale (GDS) (Yesavage, J. A. et al., J. Psychiatr. Res. 17:37-49, 1983), a self-rating scale developed specifically for rating depression in the elderly. In the GDS, a lower rating signifies less depression. GDS 50% responders are defined as subjects with a decrease on a post-baseline assessment of at least 50% as compared to baseline.
as §1, §2

Series [5] is described as follows: Plasma drug concentrations in 8-week double-blind comparison. The protocol:
as §3, §4, §5

Series [6] deals with patients 65 years of age and older with major depression. In words: Discontinuation due to adverse events in 8-week double-blind comparison. In kind it is in vivo, human. The protocol: as §2
Setting [7] is: day 14, patients with an ε4 allele, full cohort.
Where [8] appears, read: day 14, Caucasian patients, p=0.006.

Molecules are shown by their SMILES.

Take `Fc1ccc([C@@H]2CCNC[C@H]2COc2ccc3c(c2)OCO3)cc1` [paroxetine]: the “CGI scores, ε4 carriers compared with noncarriers” value in series [1] (Caucasian patients) is given as “no differences”. In series [1] (full cohort), the “CGI scores, ε4 carriers compared with those without an ε4 allele” value is recorded as “higher scores”. In addition, the “HDRS scores, improvement of ε4 carriers compared with noncarriers” value in series [2] (day 14, Caucasian patients) is “less improvement”. In series [2] (day 14, full cohort), the “HDRS-21 scores, ε4 carriers compared with those without an ε4 allele” value is “higher scores”; the “HDRS-17 scores, ε4 carriers compared with those without an ε4 allele” value was “higher scores”; the “HDRS-21 50% responders” value was “none”. In series [2] (setting [7]), the “HDRS-17 50% responders (50% decrease in HDRS-17 score over baseline)” value is reported as “none” and the HDRS-17 remitters result is listed as “none”. Further, in series [2], the “rate and onset of antidepressant response, mirtazapine compared with paroxetine” value is “slower onset of anti-depressant action”. Further, the “MMSE score, subjects with an ε4 allele compared with those without” value in series [3] (Caucasian subjects, trend, p=0.05) was “lower MMSE score”. In series [3], the “mean MMSE score, ε4 carriers compared with noncarriers” value is on record as “significantly lower”. Further, in series [4], the “GDS scores, ε4 carriers compared with noncarriers” value was “no effect”; the “50% reduction in GDS score, ε4 carriers compared with those without an ε4 allele” value is “no difference”; the “GDS scores, patients with an ε4 allele compared with those without” value is given as “no significant difference”; the “number of patients showing a 50% reduction in GDS, ε4 carriers compared with noncarriers” value is “no significant effect”. The “50% reduction in GDS score, ε4 carriers compared with noncarriers” value in series [4] is on record as “no effect”. Further, in series [5] (Caucasian subjects), the “plasma drug concentrations, ε4 carriers compared with non-ε4 carriers” value was “no differences”. The “plasma drug concentrations, ε4 carriers compared with non-ε4 carriers” value in series [5] (full cohort) is “no differences”. Moreover, the “number of patients who discontinued due to adverse events, ε4 carriers compared with noncarriers” value in series [6] (Caucasian subjects) was “no significant differences”. Besides, the “number of patients who discontinued due to adverse events, ε4 carriers compared with noncarriers” value in series [6] (full cohort) is listed as “no significant differences”.
`CN1CCN2c3ncccc3Cc3ccccc3C2C1` (stereo not shown) [mirtazapine, 1,2,3,4,10,14b-hexahydro-2-methylpyrazino [2,1-a]pyrido[2,3-c]benzazepine]: in series [1] (Caucasian patients), the “CGI scores, ε4 carriers compared with noncarriers” value is listed as “significantly better”. Moreover, in series [1] (Caucasian patients, p=0.037), the “CGI scores, mirtazapine treated compared with paroxetine treated subjects” value is on record as “significantly better”. In series [1] (full cohort), the “improvement in CGI scores, mirtazapine-treated compared with paroxetine-treated patients” value is given as “Significantly greater improvement” and the “CGI scores, ε4 carriers compared with those without an ε4 allele” value was “significantly lower scores”. Further, in series [2] (day 7, full cohort), the “improvement in HDRS-17 scores, mirtazapine-treated compared with paroxetine-treated patients” value was “significantly greater improvement”. The “HDRS scores, improvement of ε4 carriers compared with noncarriers” value in series [2] (day 14, Caucasian patients) is “greater improvement”. Moreover, in series [2] (setting [8]), the “mean HDRS-17 scores, mirtazapine compared with paroxetine” value is given as “significantly lower” and the “mean HDRS-21 scores, mirtazapine compared with paroxetine” value is “significantly lower”. The “percentage of ε4 carriers responding to medication treatment (50% reduction in HDRS-17, HDRS-21, HDRS-17 remission, 50% reduction in GDS), mirtazapine compared with paroxetine” value in series [2] (day 14, Caucasian subjects) is given as “greater”. In addition, in series [2] (day 14, full cohort), the “improvement in HDRS-17 scores, mirtazapine-treated compared with paroxetine-treated patients” value was “Significantly greater improvement”; the “improvement in HDRS-21 scores, mirtazapine-treated compared with paroxetine-treated patients” value was “Significantly greater improvement”; the “HDRS-21 scores, ε4 carriers compared with those without an ε4 allele” value is reported as “significantly lower scores”; the “HDRS-17 scores, ε4 carriers compared with those without an ε4 allele” value was “significantly lower scores”. The “HDRS-21 50% responders” value in series [2] (day 14, full cohort) was determined as 48%. Also, the “HDRS-17 50% responders, ε4 carriers compared with those without an ε4 allele” value in series [2] (day 14, full cohort, p=0.049) is reported as “significantly more”. In series [2] (setting [7]), this compound registered an HDRS-17 remitters of 28%. For the same compound, the HDRS-17 remitters in series [2] (day 14, patients without an ε4 allele, full cohort) amounted to 7.1%. Besides, the “rate and onset of antidepressant response, mirtazapine compared with paroxetine” value in series [2] is “higher rate of antidepressant response”. Further, the “mean MMSE score, ε4 carriers compared with noncarriers” value in series [3] is listed as “no effect”. For the same compound, in series [4], the “GDS scores, ε4 carriers compared with noncarriers” value is “significantly lower”; the “50% reduction in GDS score, ε4 carriers compared with those without an ε4 allele” value is given as “significantly more likely”; the “GDS scores, patients with an ε4 allele compared with those without” value is recorded as “large decrease”; the “number of patients showing a 50% reduction in GDS, ε4 carriers compared with noncarriers” value is given as “significantly more”. In series [4], the “50% reduction in GDS score, ε4 carriers compared with noncarriers” value is “significantly more”. Besides, the “plasma drug concentrations, ε4 carriers compared with non-ε4 carriers” value in series [5] (in vivo) is reported as “no differences”. Besides, the “number of patients who discontinued due to adverse events, ε4 carriers compared with noncarriers” value in series [6] (in vivo) was “no significant differences”.

Values taken from US20040106124A1, “Methods for improving the treatment of major depression by genotyping for the gene for apolipoproteine e4 and for improving the terapeutic response of humans having major depression and carrying the gene for apolipoprotein e4” (priority 2001, published 2004).
